The source of these data is patent US20100130599A1 (priority 2008, published 2010).

Like-named read-outs stand apart in the source and are kept apart here.

In data set [1] the target is T1, CYP2C9*8 (Homo sapiens, UniProt P11712, R150H). Conditions: cited from earlier work.
Data set [2] deals with T1, CYP2C9*8. The arrangement: host or cells: human subjects carrying the CYP2C9*8 allele (in vivo phenotyping). Conditions: CYP2C9*8 allele, cited from earlier work.
On data set [3], the source says:
A total of 226 African American patients having demographic and clinical parameters as depicted in Table 1 were studied.
Patients were enrolled from the pharmacist-managed anticoagulation clinics at the University of Illinois Medical Center at Chicago and at the University of Florida in Gainesville. […] Aquilante, C. […] Pharmacogenomics 8, 1535-44 (2007). Patients with a history of liver dysfunction or serum transaminase levels greater than 3 times the upper limit of normal were excluded.
After obtaining written informed consent and authorization for medical record review, a buccal cell sample was collected for genetic analysis, as previously described. Andrisin, T. E., Humma, L. M. & Johnson, J. A. Collection of genomic DNA by the noninvasive mouthwash method for use in pharmacogenetic studies. Pharmacotherapy 22, 954-60 (2002). Demographic, clinical, and social history were assessed through patient interview and review of the medical record. This study was approved by the Institutional Review Board at each institution.
Genomic DNA was isolated from buccal cells using a commercially available kit (PureGene,® Qiagen, Valencia, Calif.) according to kit manufacturer instructions. The CYP2C9 R144C (*2), […] (*3) and D360E (*5) alleles and VKORC1 −1639G>A genotype were determined as previously described. Aquilante, C. […] Clin Pharmacol Ther 79, 291-302 (2006); Hruska, M. W., Frye, R. F. & Langaee, T. Y. Pyrosequencing method for genotyping cytochrome P450 CYP2C8 and CYP2C9 enzymes. Clin Chem 50, 2392-5 (2004). The VKORC1 −4451A>C, 497G>T, and 3730A>G genotypes, and APOE 112C>T and 158C>T genotypes were determined by PCR and pyrosequencing. PCR and sequencing primers used were per Table 6.
Prior to determination of additional genotypes, genomic DNA was amplified by the whole genome amplification (WGA) technique, using the REPLI-g midi kit (Qiagen). Dean, F. B. et al. Comprehensive human genome amplification using multiple displacement amplification. Proc Natl Acad Sci USA 99, 5261-6 (2002) The fidelity of amplification was verified by comparing genotypes for CYP2C9*2, *3, *5 and VKORC1 −1639G>A determined before and after WGA. […] Reed, M. R. & Coty, W. A. in Microarrays: Preparation, Detection Methods, Data Analysis, and Applications (eds. Dill, K., Liu, R. & Grodzinski, P.) 247-60 (Springer-Verlag/Kluwer, 2009). The CYP2C9*8 genotype was determined by bi-directional DNA sequencing at Agencourt Biosciences after uniplex PCR amplification performed by Osmetech Molecular Diagnostics.
Data are expressed as numbers (percentages), mean±SD, or median (inter-quartile range). Height and weight were used to calculate body surface area (BSA). […] Hardy Weinberg Equilibrium (HWE) assumption was tested by χ^2 analysis. […] Dickmann, L. J. et al. Identification and functional characterization of a new CYP2C9 variant (CYP2C9*5) expressed among African Americans. Mol Pharmacol 60, 382-7 (2001); Allabi, A. C., Gala, J. L. & Horsmans, Y. CYP2C9, CYP2C19, ABCB1 (MDR1) genetic polymorphisms and phenytoin metabolism in a Black Beninese population. Pharmacogenet Genomics 15, 779-86 (2005); Blaisdell, J. et al. Discovery of new potentially defective alleles of human CYP2C9. Pharmacogenetics 14, 527-37 (2004) Carriers of a variant CYP2C9*8 allele were initially analyzed separately because of uncertainty regarding the functional effects of this allele.

For the molecule `CCCCc1nc(Cl)c(CO)n1Cc1ccc(-c2ccccc2-c2nnn[nH]2)cc1` [Losartran], in data set [1], the “effect of *8 on in vivo metabolism” value was “little effect”.

For the molecule `O=C1NC(=O)C(c2ccccc2)(c2ccccc2)N1` [phenytoin], in data set [2] (clinical study), the “urinary excretion of phenytoin metabolite” value is recorded as “reduced urinary excretion”. The “effect of *8 on in vivo metabolism” value in data set [2] (in vivo) is “decreases in vivo metabolism”.

As for `CC(=O)CC(c1ccccc1)c1c(O)c2ccccc2oc1=O` (stereo not drawn) [warfarin], the “Median (IQR) dose” value in data set [3] (APOE ε2/ε2, n=4) is listed as 35.5 (34.3-38.9) mg/week; in data set [3] (APOE ε2/ε3, n=36), 40.0 (30.0-49.7) mg/week; in data set [3] (APOE ε2/ε4, n=6), 61.3 (38.4-70.0) mg/week; in data set [3] (APOE ε3/ε3, n=102), 40.0 (32.1-52.5) mg/week; in data set [3] (APOE ε3/ε4, n=60), 43.8 (32.4-56.3) mg/week; in data set [3] (APOE ε4/ε4, n=9), 45.0 (40.0-52.5) mg/week. In addition, the “Median (IQR) dose” value in data set [3] (CYP2C9 *1/*1, n=171) is recorded as 42.5 (35.0-56.3) mg/week; in data set [3] (CYP2C9 *1/*8 or *8/*8, n=24), 34.4 (29.5-47.3) mg/week; in data set [3] (CYP2C9 *2, *3, *5, *6, or *11 allele, n=28), 33.1 (28.0-40.0) mg/week; in data set [3] (CYP4F2 V433M M/M, n=3), 37.5 (28.8-56.3) mg/week; in data set [3] (CYP4F2 V433M V/M, n=26), 40.0 (35.3-51.9) mg/week; in data set [3] (CYP4F2 V433M V/V, n=194) it was 41.6 (32.5-55.0) mg/week. In addition, the “Median (IQR) dose” value in data set [3] (VKORC1 497T > G GG, n=1) was 36.0 — mg/week; in data set [3] (VKORC1 497T > G TG, n=16) it was 35.0 (27.5-36.3) mg/week; in data set [3] (VKORC1 497T > G TT, n=208), 42.0 (32.5-56.1) mg/week; in data set [3] (VKORC1 −1639G > A GA, n=33), 35.0 (27.5-42.5) mg/week; in data set [3] (VKORC1 −4451C > A AA, n=3) it was 28.0 (26.5-30.3) mg/week; in data set [3] (VKORC1 −4451C > A CA, n=22) it was 42.5 (31.0-55.6) mg/week. Also, the “Median (IQR) dose” value in data set [3] (VKORC1 −4451C > A CC, n=200) is listed as 40.0 (32.5-55.0) mg/week; in data set [3] (VKORC1.3730A > G AA, n=45), 42.0 (32.5-55.0) mg/week; in data set [3] (VKORC1.3730A > G GA, n=121), 42.0 (34.0-56.3) mg/week; in data set [3] (VKORC1.3730A > G GG, n=60) it was 37.5 (30.0-47.5) mg/week. Besides, the “warfarin dose, median (IQR)” value is listed as 45.0 (33.1-56.3) mg/week in data set [3] (APOE ε4 carriers); 45.0 (40.0-52.5) mg/week in data set [3] (APOE ε4 homozygotes); 35.0 mg/wk in data set [3] (individuals with a CYP2C9*5, *6, *8, or *11 allele, n=40); 40.0 (32.0-55.0) mg/week in data set [3] (non-c4 homozygotes); 40.0 (32.0-52.5) mg/week in data set [3] (non-ε4 carriers). Besides, the “Average INR” value in data set [3] (all patients (n = 226) on stable warfarin dose, mean ± SD) is reported as 2.5 ± 0.3. Moreover, the Therapeutic warfarin dose in data set [3] (all patients (n = 226), median (IQR)) is listed as 40.0 (32.5-55.0) mg/week. Also, in data set [3] (study population, median (range)), the “median daily warfarin dose” value came out at 5.7 mg.
